Results: US4254106A, “Biologically active amides” (priority 1976, dated 1981)
Counter-ions that a name gives are not always drawn. Non-standard residues stand in square brackets, D forms with d. Residues, ends and D or L forms follow the SMILES beside them.

Test system: isolated mouse vas deferens
Assay type: cell-based
Settings: for Relative Potency (Morphine): RP=antilog[logD50(morphine)-logD50(test compound)]; for IC50: dose giving the response halfway between maximum response and minimum contraction, pulses at 0.1 Hz, mean of generally at least two cumulative dose response curves, read-out: Mean D50
Procedure: The compounds were examined for their ability to inhibit neurally evoked contractions of the isolated mouse vas deferens preparation (method of Hughes et al, Brain Research, 88 (1975) 296, using pulses at 0.1 Hz).
The heights of the five contractions that immediately preceded the addition of the first "dose" of test compound were measured and their mean calculated. The resultant mean contraction associated with a particular bath concentration of test compound was calculated from the heights of the 6th, 7th, 8th, 9th and 10th contractions after the addition of the appropriate "dose" of test compound, i.e. the five contractions that immediately preceded the subsequent "dose" or washout.
The mean control contraction height and the concentration related mean contraction heights were used to compute the constants in an equation based on the Langmuir Adsorption Isotherm which defined the dose response curve: [formula] where y=contraction (mm)
For each test compound the D50 was calculated, defined as the dose giving the resonse that is halfway between the maximum response and the minimum contraction of the tissue.
Generally at least two cumulative dose response curves were constructed and a mean D50 calculated.

SMILES | Relative Potency (Morphine) | IC50 [nM] | Reversal of the inhibition of contractions by naloxone
CSCC[C@H](NC(=O)[C@H](Cc1ccccc1)NC(=O)CNC(=O)[C@@H](C)NC(=O)[C@@H](N)Cc1ccc(O)cc1)C(=O)N[C@H](C(=O)O)[C@@H](C)O [Example 14, H.Tyr.D-Ala.Gly.Phe.Met.Thr.OH HCl] (H-Y[dA]GFMT-OH) | 229 | 2.03 | 
CC(C)C[C@H](NC(=O)[C@H](Cc1ccccc1)NC(=O)CNC(=O)[C@@H](C)NC(=O)[C@@H](N)Cc1ccc(O)cc1)C(=O)O [Example 4, H.Tyr.D-Ala.Gly.Phe.Leu.OH HCl] | 267 | 1.74 | 
CSCC[C@H](NC(=O)[C@H](Cc1ccccc1)NC(=O)CNC(=O)[C@@H](C)NC(=O)[C@@H](N)Cc1ccc(O)cc1)C(=O)O [5(a), H.Tyr.D-Ala.Gly.Phe.Met.OH HCl] | 229 | 2.03 | 
COC(=O)[C@H](CCSC)NC(=O)[C@H](Cc1ccccc1)NC(=O)CNC(=O)[C@@H](C)NC(=O)[C@@H](N)Cc1ccc(O)cc1 [5(b), H.Tyr.D-Ala.Gly.Phe.Met.OMe] | 94 | 4.95 | 
CN1CC[C@]23c4c5ccc(O)c4O[C@H]2[C@@H](O)C=C[C@H]3[C@H]1C5 [Morphine, reference compound] |  |  | Reversal of the inhibition of the contractions was effected
